Results from patent US20070276034A1, “Compounds, compositions and methods for the treatment of synucleinopathies” (priority 2002, published 2007).

How the values were obtained:
Type in all cases: biochemical
[1] = target: T1, NAC fibrils (Homo sapiens, UniProt P37840); assay: Congo red binding assay with NAC fibrils; settings: for % Inhibition NAC (result ± S.D.), Congo red binding: 3-day incubation
T1 construct: NAC is a 35-amino acid fragment of α-synuclein; purchased Bachem Inc
Description: (§1) In the Congo red binding assay, the ability of a given test compound to alter amyloid (in this case, NAC) binding to Congo red is quantified. In this assay, NAC and test compounds were incubated for 3 days and then vacuum filtered through a 0.2 μm filter. The amount of NAC retained in the filter was then quantitated following staining of the filter with Congo red. After appropriate washing of the filter, any lowering of the Congo red color on the filter in the presence of the test compound (compared to the Congo red staining of the amyloid protein in the absence of the test compound) was indicative of the test compound's ability to diminish/alter the amount of aggregated and congophilic NAC.
In one study, the ability of NAC fibrils to bind Congo red in the absence or presence of increasing amounts of compounds #1, 3, 23, 26, 63, 66, 67, or EDTA (at NAC:test compound weight ratios of 1:1, 1:0.1, 1:0.01 or 1:0.001) was determined.

[2] = target: T2, Aβ 1-42 fibrils (Homo sapiens, UniProt P05067); assay: Congo red binding assay with Aβ 1-42 fibrils; settings: for % Inhibition Aβ (result ± S.D.), Congo red binding: 3-day incubation
T2 construct: purchased Bachem Inc
Description: as §1, with “binding assay” for “binding assay,”, “a” for “a given”, “case, Aβ)” for “case, NAC)”, “assay, Aβ 1-42” for “assay, NAC”, “of Aβ 1-42” for “of NAC”, “congophilic Aβ.” for “congophilic NAC.”
In one study, the ability of Aβ fibrils to bind Congo red in the absence or presence of increasing amounts of the compounds or EDTA (at Aβ:test compound weight ratios of 1:1, 1:0.1, 1:0.01 or 1:0.001) was determined.

[3] = target: T3, monomeric Aβ 1-42 (Homo sapiens, UniProt P05067); assay: SDS-PAGE/Western blot of Aβ 1-42 after incubation with compounds; settings: 25 μM pre-fibrillized Aβ 1-42, 37° C., 3 days, 0.2 μm filtrate, antibody 6E10
T3 construct: purchased Bachem Inc
Description: In this latter study, triplicate samples of pre-fibrillized Aβ 1-42 (25 μM) was incubated at 37° C. for 3 days, alone or in the presence of the compounds or EDTA. Five micrograms of each sample was then filtered through a 0.2 μm filter. Protein recovered from the filtrate was then loaded, and ran on a 10-20% Tris-Tricine SDS-PAGE, blotted to nitrocellulose and detected using an Aβ-antibody (clone 6E10; Senetek).

[4] = target: T2, Aβ 1-42 fibrils; assay: Circular dichroism spectroscopy of Aβ 1-42 fibrils
Description: Circular dichroism (CD) spectroscopy is a method that can be used to determine the effects of test compounds to disrupt the secondary structure conformation of amyloid fibrils. In one study, as described in this example, circular dichroism spectroscopy was used to determine the effects of different compounds of the invention on β-sheet conformation of Aβ 1-42 fibrils. For this study, Aβ 1-42 (Bachem Inc., Torrance, Calif.) was first dissolved in a 2 mM NaOH solution, maintaining the pH of these solutions above 10. […] Aβ 1-42 was then incubated at 37° C. in the absence or presence of different compounds at an Aβ:test compound wt/wt ratios of 1:0.1, 1:1 and 1:10. After 3 days of incubation, CD spectra were recorded on a Jasco 810 spectropolarimeter (Easton, Md.). All CD spectra were collected with 0.05 cm quartz cells. Wavelength traces were scanned from 190-260 nm at 0.5 nm increments with a bandwidth of 5 nm, at a scan speed of 10 nm/minute, a response time of 32 seconds, and a data pitch of 0.5 nm. The whole system was equilibrated and continuously flushed with nitrogen at 10 ml/minute. […] Ellipticity in degrees was converted to MRE ([Q]; molar residue ellipticity) using the formula [Q]=100•[…]; where Q is the ellipticity in degrees; […]

[5] = NAC:test compound wt/wt ratio 1:0.1
[6] = NAC:test compound wt/wt ratio 1:1
[7] = Aβ:test compound wt/wt ratio 1:0.001
[8] = Aβ:test compound wt/wt ratio 1:0.1
[9] = Aβ:test compound wt/wt ratio 1:1
[10] = NAC:test compound wt/wt ratio 1:0.001
[11] = NAC:test compound wt/wt ratio 1:0.01
[12] = all concentrations tested (ratios 1:1 to 1:0.001), 3 days

T2 sequence (P05067 672-713): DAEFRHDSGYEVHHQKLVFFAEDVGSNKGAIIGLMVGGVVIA
T3 sequence (P05067 672-713): as above

Question: Which “% Inhibition NAC (result ± S.D.), Congo red binding” value (from here on “% Inhibition NAC”) [1, 5] does the source give for `O=C(N[C@@H]1CCCC[C@H]1NC(=O)c1ccc(O)c(O)c1)c1ccc(O)c(O)c1` (relative stereo) [Compound 26, N,N′-bis(3,4-dihydroxybenzoyl)-trans-1,2-diaminocyclohexane] here?
Answer: Its value is 36.7 ± 5.59%.

Question: What about the “% Inhibition NAC” value [1, 6] of the same molecule?
Answer: Its value is 34.4 ± 10.19%.

Question: What does the source list for `O=C(c1ccc(O)c(O)c1)C(O)c1ccc(O)c(O)c1` (centres unmarked) [Compound 1, 3,4,3′,4′-tetrahydroxybenzoin]?
Answer: % Inhibition NAC (result ± S.D.), Congo red binding [1, 5]: 75.9 ± 2.58%; % Inhibition NAC (result ± S.D.), Congo red binding [1, 6]: 75.4 ± 2.96%

Question: Which results are given for `Oc1ccc(Cc2ccc(O)c(O)c2)cc1O` [Compound 3, 3,4,3′,4′-tetrahydroxydiphenylmethane]?
Answer: % Inhibition Aβ (result ± S.D.), Congo red binding [2, 7]: 1.7 ± 4.21%; % Inhibition Aβ (result ± S.D.), Congo red binding [2, 8]: 35.7 ± 3.29%; % Inhibition Aβ (result ± S.D.), Congo red binding [2, 9]: 91.6±5.19%; % Inhibition NAC (result ± S.D.), Congo red binding [1, 10]: 65.2 ± 5.40%; % Inhibition NAC (result ± S.D.), Congo red binding [1, 11]: 81.7 ± 2.82%; % Inhibition NAC (result ± S.D.), Congo red binding [1, 5]: 83.2±3.57%; % Inhibition NAC (result ± S.D.), Congo red binding [1, 6]: 94.4±2.48%

Question: Which “detection of Aβ 1-42 monomers (~4 kilodalton band) on Western blot” value (shortened to “detection of Aβ 1-42 monomers”) [3] does the source give for `O=C(NCc1ccc(O)c(O)c1)C(=Cc1ccc(O)c(O)c1)NC(=O)c1ccc(O)c(O)c1` [Compound 21, α-(3,4-dihydroxybenzamido)-3,4-dihydroxycinnamic acid 3,4-dihydroxybenzyl amide] here?
Answer: The value was “not detected”.

Question: What does the source list for `O=C(Nc1ccc(O)c(O)c1)c1ccc(O)c(O)c1` [Compound 51, 3,4-dihydroxybenzoic acid 3,4-dihydroxyanilide]?
Answer: detection of Aβ 1-42 monomers (~4 kilodalton band) on Western blot [3]: not detected; disruption of β-sheet structure in Aβ 1-42 fibrils (CD minima at 218 nm) ([4]; 3 days co-incubation, 25 μM Aβ 1-42 (FIG. 1, FIG. 2)): marked disruption of β-sheet structure; disruption of β-sheet structure of Aβ 1-42 fibrils (CD minima at 218 nm) ([4]; Aβ:test compound wt/wt ratio of 1:10 (FIG. 3)): completely disrupt the β-sheet structure; dose-response of disruption of β-sheet structure of Aβ 1-42 fibrils (CD minima at 218 nm) ([4]; Aβ:test compound wt/wt ratios of 1:0.1, 1:1 and 1:10 (FIG. 3)): dose-dependent decrease in the minima

Question: For `O=C(CCC(=O)NCc1ccc(O)c(O)c1)NCc1ccc(O)c(O)c1` [Compound 67, succinic acid bis(3,4-dihydroxybenzylamide)], which “% Inhibition NAC” value [1, 6] is on record?
Answer: The value was 81.2 ± 2.87%.

Question: With `O=C(Nc1ccc(O)c(O)c1)Nc1ccc(O)c(O)c1` [Compound 76, 1,3-bis(3,4-dihydroxyphenyl)urea] as the molecule, how does the “detection of Aβ 1-42 monomers” value [3] read?
Answer: The value was “not detected”.

Question: Which “detection of Aβ 1-42 monomers” value [3] does the source give for `O=C(O)CN(CCN(CC(=O)O)CC(=O)O)CC(=O)O` [EDTA, reference compound] here?
Answer: Its value is “detected as a ˜4 kilodalton band”.

Question: What about the “% Inhibition Aβ (result ± S.D.), Congo red binding” value (shortened to “% Inhibition Aβ”) [2, 7] of the same molecule?
Answer: The value was 7.91 ± 3.61%.

Question: What about the “% Inhibition Aβ” value ([2]; Aβ:test compound wt/wt ratio 1:0.01) of the same molecule?
Answer: The value was 0.0 ± 3.91%.

Question: What about the “% Inhibition Aβ” value [2, 8] of the same molecule?
Answer: The value was 3.6 ± 8.68%.

Question: And the “% Inhibition Aβ” value [2, 9]?
Answer: Its value is 1.1 ± 7.02%.

Question: What about the “inhibition of Aβ 1-42 fibril binding to Congo red (in words)” value [2, 12] of the same molecule?
Answer: The value was “no significant inhibition”.

Question: And the “% Inhibition NAC” value [1, 10]?
Answer: Its value is 0.0 ± 20.57%.

Question: And the “% Inhibition NAC” value [1, 11]?
Answer: Its value is 0.0 ± 22.0%.

Question: And the “% Inhibition NAC” value [1, 5]?
Answer: The value was 0.0 ± 38.26%.

Question: What about the “% Inhibition NAC” value [1, 6] of the same molecule?
Answer: Its value is 0.2 ± 7.33%.

Question: And the “inhibition of NAC fibril binding to Congo red (in words)” value [1, 12]?
Answer: The value was “no significant inhibition”.
